Assays:
[1] = tested on: cardiac myocytes from WT and Gαq overexpressing FVB/N mice; assay: Sarcomere shortening in cardiac myocytes from WT and Gαq overexpressing mice; type: cell-based, mouse; conditions: for increase in sarcomere shortening: Gαq myocytes
Description: Cardiac myocytes were isolated from WT and Gαq overexpressing 2-6 month old FVB/N mice, suspended in Tyrode's solution (1 mM calcium) and field stimulated at 0.5 Hz at 23° C. Sarcomere shortening (SS) was assessed by real-time image analysis; data are presented at steady-state (10 minutes drug infusion).

cAMP = cAMP FRET imaging in neonatal rat cardiomyocytes; type: cell-based; conditions: 1 mM AS, n=23, p=NS
Description: Primary cultures of cardiac ventricular myocytes from 1-3 days old Sprague Dawley rats (Charles River Laboratories, Wilmington, Mass.) were prepared as described. Dostal, D. E. et al., Am. J. Physiol., 263, […]-[…] (1992). Cells were transfected with a FRET-based sensor for cAMP (Zaccolo, M. et al., Science, 295, 1711-1715 (2002)) and imaged 48 hrs after transfection. During the experiments, cells were continuously perfused with HEPES buffered Ringer's modified saline (1 mmol/LCaCl2) at room temperature. Cells were imaged on an inverted Olympus IX50 microscope upon excitation at 430 nm. Mongillo, M. et al., Circ. Res., 98, 226-234 (2006). Image analysis was performed by using ImageJ (Rasband, W. S., ImageJ, National Institutes of Health, Bethesda, Md., USA). At each time point, FRET values were measured as the 480 nm/535 nm emission ratio intensity (R) and were normalized to the 480 nm/535 nm value at time 0s (R0). Agents that increase peak Ca^2+ transients coupled to increased sarcomere shortening often do so via a rise in intracellular cAMP and subsequent activation of protein kinase A ([…]. et al., Curr. Med. Chem., 10, 967-981 (2003). To test whether this applied to AS, real-time imaging of cAMP on transfected neonatal rat cardiomyocytes was performed with a cAMP FRET-probe. Zaccolo, M. et al., Science, 295, 1711-1715 (2002). Upon exposure to 1 mM AS, the FRET signal was unchanged (0.3%±0.1%, n=23, p=NS), whereas subsequent application of norepinephrine (10 μM) or phosphodiesterase inhibitor IBMX (100 μM) both increased it by 12% (p<10^-6) (FIG. 2A). Pre-treatment of adult mouse myocytes with the PKA inhibitor […]

SERCA2a = biological target: T1, SERCA2a (Canis lupus familiaris, UniProt O46674); assay: Ca-ATPase partial reactions and Vmax in cardiac SR vesicles from normal and failing dog hearts; type: biochemical; conditions: for stimulation of maximal Ca-ATPase activity compared to control / spontaneous E2P hydrolysis rate: 0.25 mM AS; for stimulation of maximal Ca-ATPase activity compared to control: 2.5 mM oxalate
T1 construct: sealed cardiac sarcoplasmic reticulum (CSR) membrane vesicles isolated from normal (N) and failing (F); from tissue; host or cells: dog heart, normal and tachy-pacing-induced failing (sealed cardiac SR vesicles)
Description: The effect of AS on Ca-ATPase partial reactions and Vmax was measured in sealed cardiac sarcoplasmic reticulum (CSR) membrane vesicles isolated from normal (N) and failing (F) (tachy-pacing-induced) dog hearts. […] In the presence of 2.5 mM oxalate (Ca^2+-loading conditions), 0.25 mM AS stimulated maximal Ca-ATPase activity in N and F CSR (4% vs. 9% compared to control). […] This relieves back inhibition of SERCA2a by the Ca^2+ transport gradient, increasing Vmax.

RyR2 = biological target: T2, RyR2 (Mus musculus, UniProt E9Q401); assay: RyR2 single channel recordings in planar lipid bilayers; type: biochemical; conditions: for open probability of the channel (Po): control 0.16±0.03
T2 construct: endogenous in cells; host or cells: freshly isolated adult mouse cardiac myocytes
T2 sequence (E9Q401 whole entry): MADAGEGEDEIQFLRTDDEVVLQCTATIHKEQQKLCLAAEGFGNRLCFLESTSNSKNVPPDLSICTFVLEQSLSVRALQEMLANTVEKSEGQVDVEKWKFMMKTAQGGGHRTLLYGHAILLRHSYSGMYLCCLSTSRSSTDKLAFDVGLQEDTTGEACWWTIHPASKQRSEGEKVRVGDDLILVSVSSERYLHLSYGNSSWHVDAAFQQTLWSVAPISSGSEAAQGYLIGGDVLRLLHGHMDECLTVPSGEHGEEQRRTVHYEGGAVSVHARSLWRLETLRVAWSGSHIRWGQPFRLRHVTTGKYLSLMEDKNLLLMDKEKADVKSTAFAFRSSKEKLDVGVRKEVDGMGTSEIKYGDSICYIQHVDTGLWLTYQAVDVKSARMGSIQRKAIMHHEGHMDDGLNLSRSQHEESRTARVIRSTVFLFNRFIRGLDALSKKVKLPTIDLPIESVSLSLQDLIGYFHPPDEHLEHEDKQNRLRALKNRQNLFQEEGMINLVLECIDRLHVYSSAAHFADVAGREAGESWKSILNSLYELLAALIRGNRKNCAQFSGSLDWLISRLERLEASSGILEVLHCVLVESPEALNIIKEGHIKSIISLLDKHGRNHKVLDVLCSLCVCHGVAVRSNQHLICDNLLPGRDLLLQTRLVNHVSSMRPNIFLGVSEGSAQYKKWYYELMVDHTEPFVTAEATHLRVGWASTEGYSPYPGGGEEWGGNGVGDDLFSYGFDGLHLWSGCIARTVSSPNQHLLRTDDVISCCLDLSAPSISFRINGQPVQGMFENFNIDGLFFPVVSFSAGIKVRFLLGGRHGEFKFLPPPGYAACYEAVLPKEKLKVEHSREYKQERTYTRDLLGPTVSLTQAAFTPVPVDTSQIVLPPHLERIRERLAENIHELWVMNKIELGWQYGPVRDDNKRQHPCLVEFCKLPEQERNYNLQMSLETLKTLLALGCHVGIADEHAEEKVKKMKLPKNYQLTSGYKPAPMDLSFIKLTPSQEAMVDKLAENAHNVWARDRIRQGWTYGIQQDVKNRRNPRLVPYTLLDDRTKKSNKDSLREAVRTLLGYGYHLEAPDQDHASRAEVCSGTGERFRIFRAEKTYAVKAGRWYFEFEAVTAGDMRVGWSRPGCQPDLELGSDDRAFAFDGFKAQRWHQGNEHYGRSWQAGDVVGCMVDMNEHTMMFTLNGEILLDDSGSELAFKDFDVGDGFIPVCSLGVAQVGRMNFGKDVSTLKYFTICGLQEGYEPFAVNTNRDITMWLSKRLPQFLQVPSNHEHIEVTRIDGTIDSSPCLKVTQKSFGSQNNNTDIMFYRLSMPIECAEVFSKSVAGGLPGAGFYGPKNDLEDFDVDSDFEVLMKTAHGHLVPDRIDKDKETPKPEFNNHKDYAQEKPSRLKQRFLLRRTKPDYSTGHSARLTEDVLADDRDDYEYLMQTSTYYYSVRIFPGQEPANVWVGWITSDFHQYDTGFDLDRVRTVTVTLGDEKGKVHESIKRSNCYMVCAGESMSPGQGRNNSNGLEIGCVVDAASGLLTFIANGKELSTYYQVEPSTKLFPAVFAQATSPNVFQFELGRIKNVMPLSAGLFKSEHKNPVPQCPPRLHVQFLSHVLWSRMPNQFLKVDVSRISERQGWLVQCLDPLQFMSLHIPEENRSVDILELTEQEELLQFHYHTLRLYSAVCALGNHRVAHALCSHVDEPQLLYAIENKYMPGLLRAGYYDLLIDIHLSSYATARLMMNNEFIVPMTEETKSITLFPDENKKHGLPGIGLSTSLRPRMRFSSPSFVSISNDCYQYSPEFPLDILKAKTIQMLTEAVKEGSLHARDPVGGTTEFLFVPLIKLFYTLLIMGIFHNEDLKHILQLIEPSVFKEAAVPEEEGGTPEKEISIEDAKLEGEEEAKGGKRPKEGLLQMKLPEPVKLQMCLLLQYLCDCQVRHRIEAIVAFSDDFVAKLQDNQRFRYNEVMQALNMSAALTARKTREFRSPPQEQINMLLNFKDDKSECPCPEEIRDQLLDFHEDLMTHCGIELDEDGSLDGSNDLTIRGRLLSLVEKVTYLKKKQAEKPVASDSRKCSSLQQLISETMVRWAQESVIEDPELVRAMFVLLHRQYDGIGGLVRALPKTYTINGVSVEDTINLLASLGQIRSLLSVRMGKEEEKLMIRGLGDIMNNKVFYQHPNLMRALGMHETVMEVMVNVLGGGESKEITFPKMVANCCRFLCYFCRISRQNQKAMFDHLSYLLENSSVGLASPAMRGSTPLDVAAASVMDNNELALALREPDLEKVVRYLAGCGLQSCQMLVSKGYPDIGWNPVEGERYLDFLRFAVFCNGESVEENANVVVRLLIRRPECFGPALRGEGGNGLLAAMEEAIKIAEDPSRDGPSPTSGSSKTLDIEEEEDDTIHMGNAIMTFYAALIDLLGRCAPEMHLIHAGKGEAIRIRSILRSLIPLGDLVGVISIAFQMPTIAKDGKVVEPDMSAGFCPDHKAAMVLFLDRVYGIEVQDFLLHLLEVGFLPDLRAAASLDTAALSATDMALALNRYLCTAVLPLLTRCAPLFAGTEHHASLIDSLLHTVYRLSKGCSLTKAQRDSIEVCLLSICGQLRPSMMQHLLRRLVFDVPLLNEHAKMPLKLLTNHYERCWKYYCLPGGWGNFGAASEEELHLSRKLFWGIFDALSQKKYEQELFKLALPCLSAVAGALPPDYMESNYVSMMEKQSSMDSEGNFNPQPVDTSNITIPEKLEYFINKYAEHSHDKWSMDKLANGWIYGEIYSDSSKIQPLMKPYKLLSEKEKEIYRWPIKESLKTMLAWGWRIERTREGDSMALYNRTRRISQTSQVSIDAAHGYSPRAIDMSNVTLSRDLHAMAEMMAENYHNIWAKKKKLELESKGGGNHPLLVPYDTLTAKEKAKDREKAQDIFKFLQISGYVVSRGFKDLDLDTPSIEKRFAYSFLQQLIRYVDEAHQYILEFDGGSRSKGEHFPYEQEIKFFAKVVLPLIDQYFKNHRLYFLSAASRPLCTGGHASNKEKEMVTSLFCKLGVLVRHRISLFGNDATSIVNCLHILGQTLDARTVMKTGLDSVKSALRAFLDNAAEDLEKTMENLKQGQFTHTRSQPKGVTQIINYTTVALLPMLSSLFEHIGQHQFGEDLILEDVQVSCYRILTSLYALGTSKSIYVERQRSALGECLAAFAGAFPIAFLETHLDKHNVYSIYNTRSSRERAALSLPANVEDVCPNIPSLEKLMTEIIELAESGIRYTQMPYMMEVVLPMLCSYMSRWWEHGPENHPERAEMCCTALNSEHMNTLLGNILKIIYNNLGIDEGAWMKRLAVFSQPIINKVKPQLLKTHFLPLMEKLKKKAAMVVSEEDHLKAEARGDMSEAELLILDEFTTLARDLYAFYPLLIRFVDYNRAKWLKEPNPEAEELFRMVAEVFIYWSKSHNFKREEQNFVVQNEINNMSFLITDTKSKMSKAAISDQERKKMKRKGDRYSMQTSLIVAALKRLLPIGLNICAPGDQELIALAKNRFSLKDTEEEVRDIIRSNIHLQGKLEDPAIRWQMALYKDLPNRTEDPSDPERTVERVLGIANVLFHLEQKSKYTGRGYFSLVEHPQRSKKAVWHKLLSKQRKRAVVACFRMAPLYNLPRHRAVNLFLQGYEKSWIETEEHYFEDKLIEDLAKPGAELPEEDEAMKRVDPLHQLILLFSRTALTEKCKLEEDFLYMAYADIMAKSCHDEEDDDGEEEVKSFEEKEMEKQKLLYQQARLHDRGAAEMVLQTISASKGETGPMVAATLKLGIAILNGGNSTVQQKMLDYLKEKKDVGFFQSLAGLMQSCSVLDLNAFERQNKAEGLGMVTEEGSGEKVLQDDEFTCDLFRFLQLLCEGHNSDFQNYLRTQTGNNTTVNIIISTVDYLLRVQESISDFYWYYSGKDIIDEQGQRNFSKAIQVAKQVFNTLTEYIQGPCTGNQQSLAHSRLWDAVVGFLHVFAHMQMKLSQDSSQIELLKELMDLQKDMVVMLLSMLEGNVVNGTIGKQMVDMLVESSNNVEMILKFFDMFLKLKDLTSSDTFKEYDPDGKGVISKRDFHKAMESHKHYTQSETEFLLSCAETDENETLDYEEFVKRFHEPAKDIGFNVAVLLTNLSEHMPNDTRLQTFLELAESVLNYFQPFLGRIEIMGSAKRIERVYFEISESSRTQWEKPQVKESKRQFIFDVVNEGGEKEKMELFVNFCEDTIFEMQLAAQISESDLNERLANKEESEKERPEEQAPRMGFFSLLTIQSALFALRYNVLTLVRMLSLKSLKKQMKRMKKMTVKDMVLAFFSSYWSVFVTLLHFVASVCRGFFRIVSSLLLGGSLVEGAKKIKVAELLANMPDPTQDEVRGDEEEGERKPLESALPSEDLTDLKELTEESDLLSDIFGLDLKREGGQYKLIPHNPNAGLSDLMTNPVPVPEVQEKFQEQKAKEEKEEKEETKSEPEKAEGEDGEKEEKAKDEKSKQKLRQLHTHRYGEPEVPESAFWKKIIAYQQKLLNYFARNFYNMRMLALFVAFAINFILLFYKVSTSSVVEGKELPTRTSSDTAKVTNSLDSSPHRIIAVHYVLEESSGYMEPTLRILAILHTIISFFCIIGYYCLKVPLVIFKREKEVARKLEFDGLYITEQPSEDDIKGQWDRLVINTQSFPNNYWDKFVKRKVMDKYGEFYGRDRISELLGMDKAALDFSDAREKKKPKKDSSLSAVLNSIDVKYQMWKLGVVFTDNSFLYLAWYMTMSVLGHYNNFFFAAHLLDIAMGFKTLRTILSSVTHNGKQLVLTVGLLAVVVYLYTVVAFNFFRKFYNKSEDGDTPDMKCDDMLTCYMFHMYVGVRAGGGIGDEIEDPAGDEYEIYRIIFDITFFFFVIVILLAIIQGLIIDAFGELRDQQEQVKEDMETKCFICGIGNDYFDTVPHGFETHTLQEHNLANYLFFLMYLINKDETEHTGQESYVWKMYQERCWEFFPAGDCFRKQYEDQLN
Description: Recording of single RyR2 in lipid bilayers was performed as previously described. Jiang, M. T. et al., Circ. Res., 91, 1015-1022 (2002). Briefly, a phospholipid bilayer of PE:PS (1:1 dissolved in n-decane to 20 mg/ml) was formed across an aperture of ˜300 μm diameter in a delrin cup. The cis chamber (900 μl) was the voltage control side connected to the head stage of a 200 A Axopatch amplifier, while the trans chamber (800 μl) was held at virtual ground. Both chambers were initially filled with 50 mM cesium methanesulfonate and 10 mM Tris/Hepes pH 7.2. After bilayer formation, cesium methanesulfonate was raised to 300 mM in the cis side and 100 to 200 μg of mouse cardiac SR vesicles was added. After detection of channel openings, Cs^+ in the trans chamber was raised to 300 mM to collapse the chemical gradient. Single channel data were collected at steady voltages (−30 mV) for 2-5 min. Channel activity was recorded with a 16-bit VCR-based acquisition and storage system at a 10 kHz sampling rate. Signals were analyzed after filtering with an 8-pole Bessel filter at a sampling frequency of 1.5-2 kHz. Data acquisition and analysis were done with Axon Instruments software and hardware (pClamp v8.0, Digidata 200 AD/DA interface).
To further test whether HNO directly interacted with RyR2 proteins to increase open probability, purified reconstituted RyR2 were expressed in planar lipid bilayers and steady-state activity recorded with or without AS. The cis (cytosolic) solution contained 10 μM activating Ca^2+ and recordings were made at positive 30 mV holding potential. […] The probability of the channel being open (Po) increased from an average 0.16±0.03 without AS to 0.46±0.07 at 0.3 mM AS added to the cytoplasmic side of the channel (n=4). This was reversible upon addition of 2 mM DTT (0.11±0.04). These findings support direct HNO-RyR2 interaction likely via a reversible reaction with thiol groups in the protein.

[2] = Kinetics of AS decomposition in Tyrode solution; type: physicochemical; conditions: after ~1000 sec (16 min); Tyrode solution pH 7.4, room temperature; identical for 0.1-1 mM AS
Description: FIG. IA-FIG. 1D show the effects of HNO donor AS on sarcomere shortening in isolated mouse ventricular myocytes.
At physiological pH, AS decomposes to produce HNO and nitrite. Whether nitrite could play a role in the observed responses was therefore tested. […] Identical results were obtained for 0.1-1 mM AS. Thus, at time of functional analysis, 25-250 μM NO2^− is expected; however, such levels (and higher or lower doses) had no effect on sarcomere shortening (FIG. 1H).

[Na+].[Na+].[O-][N+]([O-])=NO [AS, Angeli's salt]
positive inotropic effect in Gαq myocytes compared with WT cells ([1]; AS infusion): not significantly different
increase in sarcomere shortening ([1]; AS 250 μM): 22±11%
increase in sarcomere shortening ([1]; AS 500 μM): 40±11%
change of cAMP FRET signal (cAMP): 0.3%±0.1%
Vmax stimulation in presence of Ca2+ ionophore A23187 (SERCA2a; AS with A23187): abolished
stimulation of maximal Ca-ATPase activity compared to control (SERCA2a; F CSR): 9%
stimulation of maximal Ca-ATPase activity compared to control (SERCA2a; N CSR): 4%
Vmax stimulation (SERCA2a; N CSR, AS, without oxalate): 27%
spontaneous E2P hydrolysis rate (SERCA2a; failing (F) CSR, without AS 11): 111 s⁻¹
spontaneous E2P hydrolysis rate (SERCA2a; normal (N) CSR, without AS 12): 76 s⁻¹
open probability of the channel (Po) (RyR2; 0.1 mM AS, cis side): 0.25±0.05
open probability of the channel (Po) (RyR2; 0.3 mM AS, cytoplasmic side): 0.46±0.07
open probability of the channel (Po) (RyR2; 1.0 mM AS, cis side): 0.69±0.11
Po of AS-activated channels after DTT (RyR2; 2 mM DTT added to cis side): 0.11±0.04
unitary channel conductance (RyR2; AS 0.1 to 1 mM): without altering
nitrite generation on AS decomposition [2]: 25%
